Test results from article PMC9231011, “Irreversible Antagonists for the Adenosine A2B Receptor” (Molecules, 2022).

What was measured:
human A1AR = biological target: T1, human A1AR (Homo sapiens, UniProt P30542); assay: Competitive radioligand binding vs [3H]CCPA; conditions: for Ki: apparent Ki for irreversibly binding ligands, three independent experiments, read-out: A1AR vs. Radioligand [3H]CCPA Ki ± SEM
T1 construct: purchased Perkin Elmer ES-010-M400UA
T1 sequence (P30542 1-326): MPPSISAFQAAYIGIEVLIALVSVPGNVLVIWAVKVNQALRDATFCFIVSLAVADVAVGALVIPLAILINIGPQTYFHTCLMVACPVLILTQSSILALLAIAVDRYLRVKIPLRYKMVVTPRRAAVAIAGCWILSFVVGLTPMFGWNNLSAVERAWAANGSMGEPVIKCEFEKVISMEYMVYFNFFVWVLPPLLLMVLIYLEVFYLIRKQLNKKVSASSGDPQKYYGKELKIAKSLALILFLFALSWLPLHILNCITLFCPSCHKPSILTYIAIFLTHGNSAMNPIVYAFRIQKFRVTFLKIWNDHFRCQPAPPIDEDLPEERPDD
Text: (§1) The potentially irreversible xanthine derivatives were investigated for their binding affinity at human A2BARs and for their selectivity versus the other human AR subtypes, A1, A2A, and A3, by competitive radioligand binding experiments.
(§2) The human A2AAR, the mutant human A2BAR (K269^7.32L), and the human A3AR were transiently expressed in FreeStyle^TM CHO-S cells using the transfection reagent polyethylenimine (PEI) at a ratio of 1:3 to DNA according to the manufacturer’s guideline. pcDNA3.1(+) was used as the transfection vector containing the cDNA for either the wt ARs or the K269^7.32L mutant A2BAR that was prepared by site-directed mutagenesis with the following primer: forward […], reverse […]. CHO-S cells were grown in FreeStyle^TM CHO Expression Medium supplemented with 8 mM L-glutamine before use and split to 0.5 mio. cells per mL the day before transfection. Twenty-four hours after transfection, cells were spun down by centrifugation for 15 min at 500× g. Cells were disrupted by resuspension in 5 mM tris(hydroxymethyl)aminomethane buffer (Tris, pH 7.4) containing 2 mM ethyl-ene¬diaminetetraacetic acid (EDTA) with subsequent homogenization using an Ultra-Turrax homogenizer. The cell suspension was centrifuged for 10 min at 1000× g and the obtained supernatant was pelleted by centrifugation for 60 min at 48,000× g. The supernatant was discarded and the pellet washed with 50 mM Tris (pH 7.4). After centrifugation for at least 30 min at 48,000× g, the pellet was resuspended in 50 mM Tris (pH 7.4), aliquoted and stored at −80 °C for further use. All centrifugation steps were carried out at 4 °C. Membrane preparations of the human wt A1AR and the human wt A2BAR were purchased from Perkin Elmer (Perkin-Elmer, Waltham, MA, USA) (catalogue numbers ES-010-M400UA and ES-013-M400UA).
(§3) Binding experiments were performed using 50 mM Tris buffer (pH 7.4) in a total volume of 400 µL for the A1AR, A2AAR, A3AR, and 1000 µL for the A2BAR. Initial screening was carried out in two independent experiments at 1 µM. Competition of compounds versus [^3H]CCPA (A1AR, final concentration 1 nM), [^3H]MSX-2 (A2AAR, final concentration 1 nM), [^3H]PSB-603 (A2BAR, final concentration 0.3 nM) and [^3H]PSB-11 (A3AR, final concentration 1 nM) was investigated. An amount of 7.5–25 µg of total protein per well was employed, incubated with 2 U of adenosine deaminase per mL beforehand. Non-specific binding was determined in the presence of 10 µM of 2-chloroadenosine, 10 µM of CGS 15943, 10 µM of 8-cyclopently-1,3-dipropylxanthine or 100 µM of (R)-N^6-phenylisopropyadenosine for A1-, A2A-, A2B- and A3ARs, respectively. Competition association experiments (at 25 °C) were performed in the same way but the protein was added delayed at indicated time points and the cell membranes were harvested after 1 min. Incubation was terminated by rapid filtration through GF/B glass fiber filters (Whatman) using a 48-well harvester (Brandel) after 90 (A1AR), 30 (A2AAR), 75 (A2BAR), and 45 min (A3AR) of incubation, respectively. Filters were pre-incubated with 0.3% (w/v) of PEI for 30–60 min in case of the A2AAR assay. Filters were rinsed three times with ice-cold 50 mM Tris, pH 7.4 (supplemented with 0.1% (w/v) bovine serum albumin for the A2BAR) and transferred into scintillation vials. Filters were then incubated with 2.5 mL of scintillation cocktail (ProSafe FC plus) for at least 6 h. Subsequently, radioactivity was determined using a liquid scintillation counter (Tricarb 2810TR, Perkin Elmer).

human A2AAR = biological target: T2, human A2AAR (Homo sapiens, UniProt P29274); assay: Competitive radioligand binding vs [3H]MSX-2; conditions: for Ki: apparent Ki for irreversibly binding ligands, three independent experiments, read-out: A2AAR vs. Radioligand [3H]MSX-2 Ki ± SEM
T2 construct: expressed in transfected cells; host or cells: FreeStyle CHO-S cells, pcDNA3.1(+), transient
Text: as §1, §2, §3

T2 sequence (P29274 whole entry): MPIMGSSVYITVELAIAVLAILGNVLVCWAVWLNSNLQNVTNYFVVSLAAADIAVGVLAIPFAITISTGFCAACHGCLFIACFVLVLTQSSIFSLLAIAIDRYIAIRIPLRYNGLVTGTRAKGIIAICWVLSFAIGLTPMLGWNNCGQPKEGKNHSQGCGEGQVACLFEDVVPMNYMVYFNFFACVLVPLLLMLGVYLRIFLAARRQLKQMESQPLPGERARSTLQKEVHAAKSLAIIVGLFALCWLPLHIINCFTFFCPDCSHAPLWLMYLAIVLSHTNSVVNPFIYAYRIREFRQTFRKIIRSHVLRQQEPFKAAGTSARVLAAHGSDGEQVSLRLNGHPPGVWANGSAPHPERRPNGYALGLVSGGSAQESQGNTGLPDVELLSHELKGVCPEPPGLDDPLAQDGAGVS

Question: Which results are given for `CCCn1c(=O)[nH]c2nc(-c3ccc(S(=O)(=O)F)cc3)[nH]c2c1=O` [6a, 4-(2,6-Dioxo-1-propyl-2,3,6,7-tetrahydro-1H-purin-8-yl)benzenesulfonyl fluoride]?
Answer: Ki (human A1AR): 406 ± 194 nM; A2AAR vs. Radioligand [3H]MSX-2 % inhibition at 1 µM (human A2AAR): 53%; Ki (human A2AAR): ~1000 nM

Question: `CCCn1c(=O)c2[nH]c(-c3ccc(S(=O)(=O)F)cc3)nc2n(C)c1=O` [6b, 4-(3-Methyl-2,6-dioxo-1-propyl-2,3,6,7-tetrahydro-1H-purin-8-yl)benzenesulfonyl fluoride] was tested. Which Ki (human A1AR) did it give?
Answer: 293 ± 92 nM

Question: And the Ki (human A2AAR)?
Answer: 372 ± 48 nM

Question: For `CCCn1c(=O)c2[nH]c(-c3ccc(S(=O)(=O)F)cc3)nc2n(C2CC2)c1=O` [6c, 4-(3-Cyclopropyl-2,6-dioxo-1-propyl-2,3,6,7-tetrahydro-1H-purin-8-yl)benzenesulfonyl fluoride], which Ki (human A1AR) is on record?
Answer: 41.5 ± 2.8 nM

Question: And the Ki (human A2AAR)?
Answer: 72.9 ± 8.1 nM

Question: Which results are given for `CCCn1c(=O)[nH]c2nc(-c3ccc(S(=O)(=O)N4CCC(NC(=O)c5ccc(S(=O)(=O)F)cc5)CC4)cc3)[nH]c2c1=O` [compound 12, 4-((1-((4-(2,6-Dioxo-1-propyl-2,3,6,7-tetrahydro-1H-purin-8-yl)phenyl)sulfonyl)piperidin-4-yl)carbamoyl)benzenesulfonyl fluoride]?
Answer: A1AR vs. Radioligand [3H]CCPA % inhibition at 1 µM (human A1AR; 1 µM): 22%; Ki (human A1AR): > 1000 nM; A2AAR vs. Radioligand [3H]MSX-2 % inhibition at 1 µM (human A2AAR): 32%; Ki (human A2AAR): > 1000 nM
